Source: patent US10131652B2, “Pyrimidinyloxy benzene derivatives as herbicides” (E. I. DU PONT DE NEMOURS AND COMPANY, priority 2014, dated 2018)

Assays:
Format in all cases: in vivo
[1] = test system: barnyardgrass (Echinochloa crus-galli); assay: Test C flooded paddy test plant response; conditions: Flood, 250 g ai/ha; scale of 0 to 100 where 0 is no effect and 100 is complete control; 13 to 15 days
Summary of the method: (§1)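 Water-applied treatment: compounds go directly into floodwater standing 3 cm over the soil of pots holding 2-leaf-stage plants. Depth is kept constant; plants stay in a greenhouse 13 to 15 days before visual comparison with controls on a 0–100 scale.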

rice (Oryza sativa) = assay: Test C flooded paddy test plant response; conditions: Flood, 250 g ai/ha; scale of 0 to 100 where 0 is no effect and 100 is complete control; 13 to 15 days
Summary of the method: as §1

[2] = test system: ducksalad (Heteranthera limosa); assay: Test C flooded paddy test plant response; conditions: Flood, 250 g ai/ha; scale of 0 to 100 where 0 is no effect and 100 is complete control; 13 to 15 days
Summary of the method: as §1

[3] = test system: small-flower umbrella sedge (Cyperus difformis); assay: Test C flooded paddy test plant response; conditions: Flood, 250 g ai/ha; scale of 0 to 100 where 0 is no effect and 100 is complete control; 13 to 15 days
Summary of the method: as §1

[4] = test system: barnyardgrass (Echinochloa crus-galli); assay: Test B pre-/postemergence plant response
Summary of the method: (§2)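 Evaluation is visual, about 10 days after application, rating injury from 0 (none) to 100 (complete control) relative to untreated controls. Application was a preemergence soil spray on seeded pots or a postemergence spray on one- to two-leaf plants.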

[5] = test system: wheat (Triticum aestivum); assay: Test B pre-/postemergence plant response
Summary of the method: as §2

[6] = test system: pigweed (Amaranthus retroflexus); assay: Test B pre-/postemergence plant response
Summary of the method: as §2

corn (Zea mays) = assay: Test B pre-/postemergence plant response
Summary of the method: as §2

[7] = test system: giant foxtail (Setaria faberii); assay: Test B pre-/postemergence plant response
Summary of the method: as §2

[8] = test system: ragweed (common ragweed, Ambrosia elatior); assay: Test D pre-/postemergence plant response; conditions: Postemergence
Description: (§3) Seeds of plant species selected from blackgrass (Alopecurus myosuroides), Italian ryegrass (Lolium multiflorum), winter wheat (Triticum aestivum), galium (catchweed bedstraw, Galium aparine), corn (Zea mays), large (Lg) crabgrass (Digitaria sanguinalis), giant foxtail (Setaria faberii), johnsongrass (Sorghum halepense), lambsquarters (Chenopodium album), morningglory (Ipomoea coccinea), yellow nutsedge (Cyperus esculentus), pigweed (Amaranthus retroflexus), ragweed (common ragweed, Ambrosia elatior), soybean (Glycine max), bamyardgrass (Echinochloa crus-galli), oilseed rape (Brassica napus), waterhemp (common waterhemp, Amaranthus rudis), and velvetleaf (Abutilon theophrasti) were planted into a blend of loam soil and sand and treated preemergence with test chemicals formulated in a non-phytotoxic solvent mixture which included a surfactant. At the same time, plants selected from these crop and weed species and also kochia (Kochia scoparia), wild oat (Avena fatua), and chickweed (common chickweed, Stellaria media) were planted in pots containing Redi-Earth® planting medium (Scotts Company, 14111 Scottslawn Road, Marysville, Ohio 43041) comprising spaghnum peat moss, vermiculite, wetting agent and starter nutrients and treated with postemergence applications of test chemicals formulated in the same manner. Plants ranged in height from 2 to 18 cm (1- to 4-leaf stage) for postemergence treatments. Treated plants and controls were maintained in a greenhouse for 13 to 15 days, after which time all species were compared to controls and visually evaluated. Plant response ratings, summarized in Table D, are based on a scale of 0 to 100 where 0 is no effect and 100 is complete control. A dash (-) response means no test result.

[9] = test system: galium (catchweed bedstraw, Galium aparine); assay: Test D pre-/postemergence plant response; conditions: Postemergence; for Plant response rating, Galium: scale 0 to 100, 0 no effect, 100 complete control
Description: as §3

[10] = test system: oilseed rape (Brassica napus); assay: Test D pre-/postemergence plant response; conditions: Postemergence
Description: as §3

[11] = test system: winter wheat (Triticum aestivum); assay: Test D pre-/postemergence plant response; conditions: Postemergence
Description: as §3

[12] = test system: johnsongrass (Sorghum halepense); assay: Test D pre-/postemergence plant response; conditions: Postemergence; for Plant response rating, Johnsongrass: scale 0 to 100, 0 no effect, 100 complete control
Description: as §3

[13] = test system: yellow nutsedge (Cyperus esculentus); assay: Test D pre-/postemergence plant response; conditions: Postemergence
Description: as §3

[14] = 31 g ai/ha, Preemergence, 0 to 100 scale where 0 is no effect and 100 is complete control
[15] = 125 g ai/ha, postemergence, 0 to 100 scale, 0 no effect, 100 complete control
[16] = Postemergence, 31 g ai/ha, 0 to 100 scale (0 no effect, 100 complete control)
[17] = Preemergence, 125 g ai/ha, 0 to 100 scale (0 no effect, 100 complete control)
[18] = 31 g ai/ha, scale 0 to 100 (0 no effect, 100 complete control)
[19] = 62 g ai/ha, scale 0 to 100, 0 no effect, 100 complete control
[20] = 125 g ai/ha, scale 0 to 100, 0 no effect, 100 complete control

Fc1cccc(Oc2ncc(Cl)cn2)c1-c1cc(C(F)(F)F)no1 [Compound 228]
Barnyardgrass plant response rating [1]: 40 | Rice plant response rating (rice (Oryza sativa)): 0 | Ducksalad plant response rating [2]: 85 | Sedge, Umbrella plant response rating [3]: 90 | Plant response rating, Barnyardgrass [4, 14]: 50 | Plant response rating, Barnyardgrass [4, 15]: 70 | Plant response rating, Barnyardgrass [4, 16]: 30 | Barnyardgrass plant response rating [4, 17]: 100 | Plant response rating, Wheat [5, 15]: 50 | Plant response rating, Wheat [5, 16]: 0 | Plant response rating, Pigweed [6, 14]: 100 | Plant response rating, Pigweed [6, 15]: 100 | Plant response rating, Pigweed [6, 16]: 100 | Pigweed plant response rating [6, 17]: 100 | Plant response rating, Corn (corn (Zea mays); [15]): 30 | Plant response rating, Corn (corn (Zea mays); [16]): 20 | Plant response rating, Foxtail, Giant [7, 14]: 90 | Plant response rating, Foxtail, Giant [7, 15]: 90 | Plant response rating, Foxtail, Giant [7, 16]: 40 | Foxtail, Giant plant response rating [7, 17]: 100 | Plant response rating (scale 0 to 100), Ragweed ([8]; 16 g ai/ha): 20 | Ragweed plant response rating [8, 18]: 35 | Ragweed plant response rating [8, 19]: 60 | Plant response rating, Ragweed [8, 20]: 60 | Plant response rating (scale 0 to 100), Galium ([9]; 16 g ai/ha): 85 | Galium plant response rating [9, 18]: 98 | Plant response rating, Galium ([9]; 62 g ai/ha): 98 | Plant response rating, Galium ([9]; 125 g ai/ha): 100 | Plant response rating (scale 0 to 100), Oilseed Rape ([10]; 16 g ai/ha): 65 | Oilseed Rape plant response rating [10, 18]: 85 | Oilseed Rape plant response rating [10, 19]: 80 | Plant response rating, Oilseed Rape [10, 20]: 98 | Plant response rating (scale 0 to 100), Wheat ([11]; 16 g ai/ha): 0 | Wheat plant response rating [11, 18]: 5 | Wheat plant response rating [11, 19]: 10 | Plant response rating, Wheat [11, 20]: 10 | Plant response rating (scale 0 to 100), Johnsongrass ([12]; 16 g ai/ha): 10 | Johnsongrass plant response rating [12, 18]: 10 | Plant response rating, Johnsongrass ([12]; 62 g ai/ha): 25 | Plant response rating, Johnsongrass ([12]; 125 g ai/ha): 60 | Plant response rating (scale 0 to 100), Nutsedge, Yellow ([13]; 16 g ai/ha): 5 | Nutsedge, Yellow plant response rating [13, 18]: 5 | Nutsedge, Yellow plant response rating [13, 19]: 5 | Plant response rating, Nutsedge, Yellow [13, 20]: 10
